pEC50, pIC50: −log10 of the molar value. Where two headings read alike, the source gives them in different places.
Legend:
cumulus-oocyte complexes = test: Cumulus expansion assay in vitro; assay type: cell-based, mice; conditions: competing with PGE2
Experimental: Folliculogenesis is induced in immature female mice (strain: CD1 (ICR) from Charles River) at an age of 14-18 days by a single dose (intraperitoneally) of 10 I.U. of PMSG (Pregnant Mare Serum Gonadotropin; Sigma G-4877, Batch 68H0909). 47-50 hours after the injection, the ovaries are removed and the cumulus-oocyte complexes are removed. The cumulus complex is not yet expanded at this stage.
The cumulus-oocyte complexes are then incubated with prostaglandin E2 (PGE2) (1 μM), vehicle control (ethanol) or test substances for 20-24 hours. Medium: alpha-MEM medium with 0.1 mM IBMX, pyruvates (0.23 mM), glutamines (2 mM), pen/strep (100 IU/ml pen. and 100 μg/ml strep.) and HSA (8 mg/ml). Cumulus expansion is then established through the division into four stages (according to Vanderhyden et al. Dev Biol. 1990 August; 140(2):307-317).

[1] = target: T1, human prostaglandin E2 (subtype EP2) receptor (Homo sapiens, UniProt P43116); test: cAMP agonism assay (HTRF cAMP detection); assay type: cell-based
T1 construct: host or cells: cells in a cell culture plate
T1 sequence (P43116 whole entry): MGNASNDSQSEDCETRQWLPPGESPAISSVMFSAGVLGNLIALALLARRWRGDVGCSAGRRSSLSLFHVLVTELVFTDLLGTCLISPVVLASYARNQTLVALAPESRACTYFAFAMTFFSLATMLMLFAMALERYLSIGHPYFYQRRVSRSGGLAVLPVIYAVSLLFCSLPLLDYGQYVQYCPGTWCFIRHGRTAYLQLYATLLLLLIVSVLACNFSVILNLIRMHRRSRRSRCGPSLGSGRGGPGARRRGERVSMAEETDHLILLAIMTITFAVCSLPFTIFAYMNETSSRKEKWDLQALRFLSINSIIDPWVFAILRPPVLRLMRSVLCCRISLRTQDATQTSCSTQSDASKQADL
Experimental: (§1) The binding of PGE2 to the EP2 subtype of the human PGE2 receptor induces activation of membrane-associated adenylate cyclases and leads to the formation of cAMP. In the presence of the phosphodiesterase inhibitor IBMX, cAMP which has accumulated due to this stimulation and been released by cell lysis is employed in a competitive detection method. In this assay, the cAMP in the lysate competes with cAMP-XL665 for binding of an Eu cryptate-labeled anti-cAMP antibody.
(§2) The two signals are measured in a suitable measuring instrument with a time lag, i.e. after the background fluorescence has declined.
(§3) The substance solutions (0.75 μl) containing 30% DMSO are introduced into an assay plate and dissolved in 16 μl of a KRSB+IBMX stimulation solution (1× Krebs-Ringer Bicarbonate Buffer; Sigma-Aldrich #K-4002; including 750 μM 3-isobutyl-1-methylxanthine Sigma-Aldrich #I-7018), and then 15 μl thereof are transferred into a media-free cell culture plate which has been washed with KRSB shortly beforehand.
(§4) After incubation at room temperature (RT; volume: ˜15 μl) for 60 minutes, the reaction is then stopped by adding 5 μl of lysis buffer and incubated at RT for a further 20 min (volume: ˜20 μl). The cell lysate is then transferred into a measuring plate and measured in accordance with the manufacturer's information (cyclic AMP kit Cisbio International #62AMPPEC).

[2] = target: T1, human prostaglandin E2 (subtype EP2) receptor; test: cAMP antagonism assay (HTRF cAMP detection, in the presence of PGE2); assay type: cell-based
Experimental: as §1, §2, §3
as §4, with “preincubation” for “incubation”, “(RT) for 30 minutes, 5 μl of a 4×PGE2 solution (11 nM) are added, and incubation is carried out in the presence of the agonist at RT for a further 60 min (volume: ˜20” for “(RT; volume: ˜15”, “before” for “for 60 minutes,”, “˜25” for “˜20”

[3] = cAMP agonism assay, EP2 receptor, read-out: Agonism [ED50
[4] = cAMP antagonism assay, EP2 receptor, in presence of PGE2, read-out: Antagonism [IC50

| SMILES | pEC50 [1, 3] | pIC50 [2, 4] | also measured |
| --- | --- | --- | --- |
| CC(C)Oc1ccc2c(=O)c3cc(C(=O)O)ccc3oc2c1 [AH 6809, reference compound] |  |  | suppression of cumulus expansion (cumulus-oocyte complexes; concentration of 100-200 μM): about 20% |
| O=C(NC1CCN(c2ccnc3cc(Cl)ccc23)CC1)c1ccccc1Br [Example 1, 2-Bromo-N-[1-(7-chloro-quinolin-4-yl)-piperidin-4-yl]-benzamide] | < 4.72 | 6.22 |  |
| O=C(NC1CCN(c2ccnc3cc(Cl)ccc23)CC1)c1ccccc1Cl [Example 4, 2-Chloro-N-[1-(7-chloro-quinolin-4-yl)-piperidin-4-yl]-benzamide] | < 4.72 | 6.00 |  |
| O=C(NC1CCN(c2ccnc3cc(Cl)ccc23)CC1)c1ccccc1I [Example 10, N-[1-(7-Chloro-quinolin-4-yl)-piperidin-4-yl]-2-iodo-benzamide] |  | 5.89 |  |
| O=C(NC1CCN(c2ccnc3cc(Cl)ccc23)CC1)c1ccc(F)c(F)c1F [Example 20, N-[1-(7-Chloro-quinolin-4-yl)-piperidin-4-yl]-2,3,4-trifluoro-benzamide] | < 4.72 | 5.80 |  |
| O=C(NC1CCN(c2ccnc3cc(Cl)ccc23)CC1)c1cccc(Cl)c1Cl [Example 25, 2,3-Dichloro-N-[1-(7-chloro-quinolin-4-yl)-piperidin-4-yl)-benzamide] | < 4.72 |  | suppression of cumulus expansion (cumulus-oocyte complexes; one tenth of the concentration (of 100-200 μM)): ~50%; pEC50 ([1]; cellular agonism test, read-out: EC50 in the cellular agonism test): < 4.72; pIC50 ([2]; antagonism test, read-out: IC50 in the antagonism test): 6.70 |
| O=C(NC1CCN(c2ccnc3cc(Cl)ccc23)CC1)c1ccc([N+](=O)[O-])o1 [Example 26, 5-Nitro-furan-2-carboxylic acid [1-(7-chloro-quinolin-4-yl)-piperidin-4-yl]-amide] | < 4.72 | 5.70 |  |

Now from value to compound, other results behind:

| pEC50 [1, 3] | pIC50 [2, 4] | SMILES | also measured |
| --- | --- | --- | --- |
| < 4.72 | 6.70 | O=C(NC1CCN(c2ccnc3cc(C(F)(F)F)ccc23)CC1)c1cccc(Cl)c1Cl [Example 34, 2,3-Dichloro-N-[1-(7-trifluoromethyl-quinolin-4-yl)-piperidin-4-yl]-benzamide] |  |
| < 4.72 | 7.00 | O=C(NC1CCN(c2ccnc3c(Cl)cccc23)CC1)c1cccc(Cl)c1Cl [Example 35, 2,3-Dichloro-N-[1-(8-chloro-quinolin-4-yl)-piperidin-4-yl]-benzamide] |  |
| < 4.72 | 7.00 | O=C(NC1CCN(c2ccnc3cc(Br)ccc23)CC1)c1cccc(Cl)c1Cl [Example 36, N-[1-(7-Bromo-quinolin-4-yl)-piperidin-4-yl]-2,3-dichloro-benzamide] |  |
| < 4.72 | 6.22 | O=C(NC1CCN(c2ncnc3cc(Cl)ccc23)CC1)c1cccc(Cl)c1Cl [Example 37, 2,3-Dichloro-N-[1-(7-chloro-quinazolin-4-yl)-piperidin-4-yl]-benzamide] |  |
| < 4.72 | 6.05 | N#Cc1ccc2c(N3CCC(NC(=O)c4cccc(Cl)c4Cl)CC3)ccnc2c1 [Example 40, 2,3-Dichloro-N-[1-(7-cyano-quinolin-4-yl)-piperidin-4-yl]-benzamide] |  |

Source: patent US20080125463A1, “N-(1-hetarylpiperidin-4-yl)(het)arylamides as EP2 receptor modulators” (priority 2006, published 2008)
